Assay results from US20110039902A1, “PROCESS FOR PREPARING A CRYSTALLINE FORM COMPOUND OF 3-BENZYL-2-METHYL-2,3,3a,4,5,6,7,7a-OCTAHYDROBENZO[d]ISOXAZOL-4-ONE” (ABIOGEN PHARMA S.P.A., priority 2008, published 2011).

Test: stability of BTG 1640 hydrochloride salt to temperature
Type: physicochemical
Details: at temperatures above 30° C.

**Q.** For `CN1OC2CCCC(=O)C2C1Cc1ccccc1.Cl` (stereo not shown) [hydrochloride salt of BTG 1640], which stability to temperature is on record?
**A.** unstable
